The values that follow come from ChEMBL document CHEMBL4477227, “Synthesis and antibacterial evaluation of macrocyclic diarylheptanoid derivatives” (Bioorg Med Chem Lett, 2016).

Broadly, the MIC is the smallest concentration in the dilution series that meets the test's criterion for growth inhibition.

Test [1] concerns Burkholderia cepacia. As to the kind of experiment: Antibacterial activity against Burkholderia cepacia ATCC 25416 by microbroth dilution method. The class given is functional. On the technique in general: Broth dilution looks for growth in wells or tubes with falling amounts of substance.
The test system of test [2] is Bacillus subtilis. As to the kind of experiment: Antibacterial activity against Bacillus subtilis ATCC 23857 by microbroth dilution method. The class given is functional. The note with it: Bacillus subtilis, ATCC 23857; read-out: MIC.
The test system of test [3] is Escherichia coli. Briefly: Antibacterial activity against Escherichia coli K-12 by microbroth dilution method. The class given is functional.
Test [4] deals with Mycobacterium tuberculosis. As to the kind of experiment: Antitubercular activity against Mycobacterium tuberculosis H37Rv by microbroth dilution method. The class given is functional. As to conditions: Mycobacterium tuberculosis, H37Rv; read-out: MIC.
Test [5] relates to Bacillus anthracis. Briefly: Antibacterial activity against Bacillus anthracis Sterne 34F2 by microbroth dilution method. The class given is functional. As to conditions: Bacillus anthracis, Sterne 34F2; read-out: MIC.
Test [6] has as its system Acinetobacter baumannii. As to the kind of experiment: Antibacterial activity against Acinetobacter baumannii ATCC 19606 by microbroth dilution method. The class given is functional, ATCC 19606 = CIP 70.34 = JCM 6841. As to conditions: Acinetobacter baumannii, ATCC 19606 = CIP 70.34 = JCM 6841; read-out: MIC.
Test [7] has as its system Streptococcus pyogenes. As to the kind of experiment: Antibacterial activity against Streptococcus pyogenes ATCC 700294 by microbroth dilution method. The class given is functional. The note with it: Streptococcus pyogenes, ATCC 700294; read-out: MIC.
Test [8] deals with Staphylococcus aureus. As to the kind of experiment: Antibacterial activity against methicillin-resistant Staphylococcus aureus NRS70 by microbroth dilution method. The class given is functional. The note with it: Staphylococcus aureus, NRS70; read-out: MIC.
The subject of test [9] is Enterococcus faecalis. Briefly: Antibacterial activity against Enterococcus faecalis ATCC 33186 by microbroth dilution method. The class given is functional. The note with it: Enterococcus faecalis, ATCC 33186; read-out: MIC.
For test [10], the system named is Proteus vulgaris. Briefly: Antibacterial activity against Proteus vulgaris ATCC 33420 by microbroth dilution method. The class given is functional.
Test [11] concerns Klebsiella pneumoniae. Briefly: Antibacterial activity against Klebsiella pneumoniae ATCC 33495 by microbroth dilution method. The class given is functional.
For test [12], the system named is Staphylococcus aureus. As to the kind of experiment: Antibacterial activity against methicillin-sensitive Staphylococcus aureus ATCC 29213 by microbroth dilution method. The class given is functional. As to conditions: Staphylococcus aureus, ATCC 29213; read-out: MIC.
Test [13] has as its system Proteus mirabilis. Briefly: Antibacterial activity against Proteus mirabilis ATCC 25933 by microbroth dilution method. The class given is functional.
For test [14], the system named is Streptococcus pneumoniae. As to the kind of experiment: Antibacterial activity against Streptococcus pneumoniae R6 by microbroth dilution method. The class given is functional. As to conditions: Streptococcus pneumoniae, R6; read-out: MIC.
The subject of test [15] is Escherichia coli. Briefly: Antibacterial activity against Escherichia coli harboring TolC deletion mutant by microbroth dilution method. The class given is functional. The note with it: Escherichia coli; read-out: MIC.
The test system of test [16] is Pseudomonas aeruginosa. As to the kind of experiment: Antibacterial activity against Pseudomonas aeruginosa PAO1 by microbroth dilution method. The class given is functional.

In brackets after ≈: the same amount, converted by molar mass.

With `COc1ccc2cc1Oc1cc(ccc1OC)CCC(NC(=O)/C=C/c1ccc(F)cc1)CCCC2` (stereo not drawn), the MIC in [1], in [2], in test [3], in test [4], in test [5] and in [6] was more than 100 µg/mL in each case. Further, the MIC in test [7], in [8], in test [9], in [10], in [11] and in test [12] was more than 100 µg/mL each time. Moreover, the MIC in [13], in [14], in test [15] and in test [16] was more than 100 µg/mL throughout.

Take `COc1ccc2cc1Oc1cc(ccc1OC)CCC(OC(=O)CCc1ccccc1)CCCC2` (stereo not drawn): the minimal inhibitory concentration (MIC) in [1], in test [2], in [3], in [4], in test [5] and in [6] was more than 100 µg/mL in each case. The MIC in test [7], in test [8], in test [9], in [10], in test [11] and in test [12] was more than 100 µg/mL in each case. Further, the MIC in test [13], in [14], in [15] and in test [16] was more than 100 µg/mL each time.

As for `COc1ccc2cc1Oc1cc(ccc1OC)CCC(OS(=O)(=O)c1ccc(C)cc1)CCCC2` (stereo not drawn), the MIC in [1], in test [2], in [3], in [4], in test [5] and in test [6] was more than 100 µg/mL each time. Also, the MIC in test [7] is more than 100 µg/mL; in test [8], 100 µg/mL (≈ 201 µM); in test [9], 100 µg/mL (≈ 201 µM); in [10] it was more than 100 µg/mL; in [11] it was more than 100 µg/mL; in test [12], more than 100 µg/mL. Besides, the MIC in test [13], in test [14], in [15] and in [16] was more than 100 µg/mL in each case.

`COc1ccc2cc1Oc1cc(ccc1OC)CCC(NC(=O)NCCc1ccc(F)cc1)CCCC2` (stereo not drawn): the MIC in test [1], in [2], in [3], in [4], in [5] and in [6] was more than 100 µg/mL in each case. Moreover, the MIC in [7], in test [8], in test [9], in [10], in [11] and in test [12] was more than 100 µg/mL each time. Besides, the MIC in [13], in test [14], in [15] and in [16] was more than 100 µg/mL in each case.

Consider `COc1ccc2cc1Oc1cc(ccc1OC)CCC(OC(C)=O)CCCC2` (stereo not drawn), for which the MIC in test [1], in [2], in [3], in test [4], in test [5] and in test [6] was more than 100 µg/mL in each case. Moreover, the MIC in [7], in test [8], in [9], in test [10], in test [11] and in test [12] was more than 100 µg/mL throughout. The MIC is more than 100 µg/mL in test [13], more than 100 µg/mL in [14], 12.5 µg/mL (≈ 32.5 µM) in test [15] and more than 100 µg/mL in [16].

In the case of `COc1ccc2cc1Oc1cc(ccc1OC)CCC(OS(=O)(=O)c1ccc(OC(F)(F)F)cc1)CCCC2` (stereo not drawn), the MIC in test [1] is more than 100 µg/mL; in test [2] it was more than 100 µg/mL; in [3], more than 100 µg/mL; in test [4] it was more than 100 µg/mL; in [5] it was 100 µg/mL (≈ 176 µM); in [6] it was more than 100 µg/mL. For the same compound, the MIC in [7] was more than 100 µg/mL; in test [8], 50 µg/mL (≈ 88.2 µM); in test [9], 50 µg/mL (≈ 88.2 µM); in test [10], more than 100 µg/mL; in test [11], more than 100 µg/mL; in [12], more than 100 µg/mL. For the same compound, the MIC in test [13], in test [14], in [15] and in test [16] was more than 100 µg/mL throughout.

As to `COc1cc2ccc1Oc1cc(ccc1OC)CCCCC(NCCc1ccc(F)cc1)CC2` (stereo not drawn), the MIC is more than 100 µg/mL in test [1]; 12.5 µg/mL (≈ 27 µM) in test [2]; more than 100 µg/mL in test [3]; 25 µg/mL (≈ 53.9 µM) in test [4]; 50 µg/mL (≈ 108 µM) in test [5]; 100 µg/mL (≈ 216 µM) in [6]. Moreover, the MIC in [7] was 50 µg/mL (≈ 108 µM); in test [8], 25 µg/mL (≈ 53.9 µM); in test [9], 25 µg/mL (≈ 53.9 µM); in test [10], more than 100 µg/mL; in test [11], more than 100 µg/mL; in test [12] it was 25 µg/mL (≈ 53.9 µM). The MIC is more than 100 µg/mL in test [13], 25 µg/mL (≈ 53.9 µM) in test [14], 25 µg/mL (≈ 53.9 µM) in test [15] and more than 100 µg/mL in [16].

`COc1ccc2cc1Oc1cc(ccc1OC)CCC(NCCc1ccc(F)cc1)CC2`: the minimum inhibitory concentration (MIC) in [1] was more than 100 µg/mL; in test [2], 50 µg/mL (≈ 115 µM); in test [3] it was more than 100 µg/mL; in [4], 50 µg/mL (≈ 115 µM); in [5] it was 100 µg/mL (≈ 230 µM); in test [6], 100 µg/mL (≈ 230 µM). Besides, the MIC in test [7] was 100 µg/mL (≈ 230 µM); in [8] it was 100 µg/mL (≈ 230 µM); in test [9], 100 µg/mL (≈ 230 µM); in test [10], more than 100 µg/mL; in test [11], more than 100 µg/mL; in test [12] it was 50 µg/mL (≈ 115 µM). Further, the MIC was more than 100 µg/mL in [13], 100 µg/mL (≈ 230 µM) in [14], 50 µg/mL (≈ 115 µM) in test [15] and more than 100 µg/mL in [16].

Take `COc1ccc2cc1Oc1cc(ccc1OC)CCC(NC(=O)NCCc1ccccc1)CCCC2` (stereo not drawn): the MIC in test [1], in [2], in test [3], in [4], in test [5] and in test [6] was more than 100 µg/mL each time. In addition, the MIC in test [7], in test [8], in test [9], in test [10], in [11] and in [12] was more than 100 µg/mL in each case. Further, the MIC in test [13], in test [14], in test [15] and in test [16] was more than 100 µg/mL each time.

Take `COc1ccc2cc1Oc1cc(ccc1OC)CCC(OS(C)(=O)=O)CCCC2` (stereo not drawn): the MIC in test [1], in test [2], in [3], in [4], in test [5] and in test [6] was more than 100 µg/mL in each case. Also, the MIC in test [7], in test [8], in test [9], in [10], in test [11] and in [12] was more than 100 µg/mL throughout. Also, the minimum inhibitory concentration (MIC) in test [13], in test [14], in [15] and in test [16] was more than 100 µg/mL each time.

As to `COc1ccc2cc1Oc1cc(ccc1OC)CCC(NC(=O)CCc1ccccc1)CCCC2` (stereo not drawn), the MIC in test [1], in [2], in test [3], in test [4], in test [5] and in [6] was more than 100 µg/mL throughout. Also, the MIC in test [7], in test [8], in [9], in test [10], in [11] and in test [12] was more than 100 µg/mL in each case. The MIC in [13], in test [14], in test [15] and in [16] was more than 100 µg/mL throughout.

For the compound `COc1ccc2cc1Oc1cc(ccc1OC)CCC(OC(=O)Cc1ccccc1)CCCC2` (stereo not drawn), the MIC in test [1], in test [2], in test [3], in test [4], in test [5] and in test [6] was more than 100 µg/mL throughout. Moreover, the MIC in test [7], in test [8], in [9], in test [10], in [11] and in test [12] was more than 100 µg/mL in each case. Also, the MIC in [13], in test [14], in test [15] and in test [16] was more than 100 µg/mL in each case.

In the case of `COc1ccc2cc1Oc1cccc(c1)CCCCC(NCCc1ccc(F)cc1)CC2` (stereo not drawn), the MIC in test [1] is more than 100 µg/mL; in test [2], 6.25 µg/mL (≈ 14.4 µM); in [3], more than 100 µg/mL; in test [4], 25 µg/mL (≈ 57.7 µM); in [5], 25 µg/mL (≈ 57.7 µM); in [6] it was 50 µg/mL (≈ 115 µM). Moreover, the MIC in [7] was 50 µg/mL (≈ 115 µM); in [8] it was 12.5 µg/mL (≈ 28.8 µM); in [9], 12.5 µg/mL (≈ 28.8 µM); in [10], more than 100 µg/mL; in test [11] it was more than 100 µg/mL; in test [12] it was 25 µg/mL (≈ 57.7 µM). Besides, the MIC in test [13] is more than 100 µg/mL; in test [14], 50 µg/mL (≈ 115 µM); in test [15], 12.5 µg/mL (≈ 28.8 µM); in [16] it was more than 100 µg/mL.
